# Source: patent US20090247559A1 (Exelixis, Inc., priority 2007, published 2009)
# Where two headings read alike, the source gives them in different places.
# Experiments:
# [1] = molecular target: CK2 (Homo sapiens, UniProt P68400); test: CK2 inhibition, biochemical chemiluminescence holoenzyme assay (Kinase Glo, IC50 determination); conditions: Table 1 activity class; symbol given only if active; read-out: CK2 IC50 (Activity C)
# Method in brief: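 Holoenzyme CK2 assay; compounds pre-incubated with substrate and enzyme, then reacted 150 min at 24-27° C. Remaining ATP measured as luminescence with Kinase Glo, and IC50 derived from the signal.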
# [2] = molecular target: PIM (PIM-1, PIM-2, and/or PIM-3); test: PIM-1, PIM-2 and PIM-3 inhibition, biochemical chemiluminescence assays (Kinase Glo, IC50 determination); conditions: Table 1 activity class; PIM refers to PIM-1, PIM-2, and/or PIM-3; read-out: PIM IC50 (Activity B)
# [3] = molecular target: CDC7 (Homo sapiens, UniProt O00311); test: CDC7 inhibition, biochemical chemiluminescence assay (Kinase Glo, IC50 determination)
# Sequence of CDC7 (O00311 whole entry): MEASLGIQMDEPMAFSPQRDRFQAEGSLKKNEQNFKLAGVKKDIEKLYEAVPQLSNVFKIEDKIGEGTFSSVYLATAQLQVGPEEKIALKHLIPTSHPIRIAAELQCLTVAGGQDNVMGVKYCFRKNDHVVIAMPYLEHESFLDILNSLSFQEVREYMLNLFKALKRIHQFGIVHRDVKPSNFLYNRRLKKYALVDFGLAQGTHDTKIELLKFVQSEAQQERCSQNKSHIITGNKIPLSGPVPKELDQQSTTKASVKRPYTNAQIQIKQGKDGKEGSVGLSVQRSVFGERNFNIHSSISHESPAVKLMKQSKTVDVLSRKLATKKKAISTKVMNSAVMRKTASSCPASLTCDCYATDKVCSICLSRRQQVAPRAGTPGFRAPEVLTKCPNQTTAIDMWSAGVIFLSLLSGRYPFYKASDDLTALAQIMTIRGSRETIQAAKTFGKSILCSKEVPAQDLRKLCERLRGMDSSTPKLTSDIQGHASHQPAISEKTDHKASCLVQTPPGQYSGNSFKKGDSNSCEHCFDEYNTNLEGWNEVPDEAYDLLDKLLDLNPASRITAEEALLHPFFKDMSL
# Sequence of CDC7 (Q9UBU7 whole entry partner): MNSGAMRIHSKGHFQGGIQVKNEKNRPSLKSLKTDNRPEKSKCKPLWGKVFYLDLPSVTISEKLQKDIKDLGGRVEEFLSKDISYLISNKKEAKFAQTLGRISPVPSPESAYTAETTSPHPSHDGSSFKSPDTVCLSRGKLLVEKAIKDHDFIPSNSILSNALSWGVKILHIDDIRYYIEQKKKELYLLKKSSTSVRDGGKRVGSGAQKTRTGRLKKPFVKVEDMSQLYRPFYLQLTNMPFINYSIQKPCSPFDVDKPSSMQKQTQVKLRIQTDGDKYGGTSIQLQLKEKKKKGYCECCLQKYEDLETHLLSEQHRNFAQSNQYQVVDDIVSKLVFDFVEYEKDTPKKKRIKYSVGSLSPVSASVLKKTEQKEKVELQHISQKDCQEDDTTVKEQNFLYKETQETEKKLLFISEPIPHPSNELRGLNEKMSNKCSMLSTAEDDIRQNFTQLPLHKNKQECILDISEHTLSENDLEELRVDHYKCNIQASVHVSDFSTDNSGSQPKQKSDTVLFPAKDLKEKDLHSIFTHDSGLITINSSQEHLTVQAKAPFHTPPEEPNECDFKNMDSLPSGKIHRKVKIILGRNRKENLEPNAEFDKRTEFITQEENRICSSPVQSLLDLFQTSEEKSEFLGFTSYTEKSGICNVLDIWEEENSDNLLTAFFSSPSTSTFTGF
# Method in brief: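 CDC7 enzyme preincubated with compound 10 min at ambient temperature, then ATP mix in Tris Base added; reaction 90 min at 24-27 °C. Remaining ATP quantified by Kinase Glo luminescence to give IC50.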
# [4] = Table 1 activity class, symbol given only if active, read-out: CDC7 IC50 (Activity A)
# [5] = compounds in Table 1, read-out: CDC7 IC50 value
# Sequence of CK2 (P68400 whole entry): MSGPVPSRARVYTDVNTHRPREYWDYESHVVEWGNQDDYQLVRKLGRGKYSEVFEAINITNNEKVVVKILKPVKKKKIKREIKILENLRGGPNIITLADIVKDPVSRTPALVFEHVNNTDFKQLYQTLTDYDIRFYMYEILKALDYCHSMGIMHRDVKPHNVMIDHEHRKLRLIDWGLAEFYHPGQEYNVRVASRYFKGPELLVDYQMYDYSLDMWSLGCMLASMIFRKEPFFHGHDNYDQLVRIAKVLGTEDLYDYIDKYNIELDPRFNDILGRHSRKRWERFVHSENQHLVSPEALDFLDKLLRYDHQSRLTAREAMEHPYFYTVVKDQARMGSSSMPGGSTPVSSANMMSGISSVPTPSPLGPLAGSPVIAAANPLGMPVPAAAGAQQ
# Sequence of CK2 (P67870 whole entry partner): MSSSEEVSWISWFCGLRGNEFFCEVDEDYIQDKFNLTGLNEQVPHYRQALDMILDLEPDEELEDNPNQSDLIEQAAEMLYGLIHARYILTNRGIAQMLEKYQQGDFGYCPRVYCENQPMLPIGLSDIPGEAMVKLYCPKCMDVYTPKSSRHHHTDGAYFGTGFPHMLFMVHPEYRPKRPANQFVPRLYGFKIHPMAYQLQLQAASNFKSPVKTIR
IC50 [1],IC50 [2],"IC50 [3, 4]","IC50 [3, 5]",SMILES
< 10 µM,< 10 µM,< 10 µM,–,"O=C(NCc1ccccc1Cl)C1CCN(Cc2nc3c(oc4ccc(Br)cc43)c(=O)[nH]2)C1 (centres unmarked) [Compound 224, 1-[(8-bromo-4-oxo-3,4-dihydro[1]benzofuro[3,2-d]pyrimidin-2-yl)methyl]-N-[(2-chlorophenyl)methyl]pyrrolidine-3-carboxamide]"
< 10 µM,< 10 µM,< 10 µM,< 0.1 µM,"NCCNc1nc2c(oc3ccc(Br)cc32)c(=O)[nH]1 [Compound 231, 2-[(2-aminoethyl)amino]-8-bromo[1]benzofuro[3,2-d]pyrimidin-4(3H)-one]"
< 10 µM,< 10 µM,< 10 µM,< 0.1 µM,"CCC(C)NCc1nc2c(oc3ccc(Br)cc32)c(=O)[nH]1 (centres unmarked) [Compound 232, 8-bromo-2-{[(1-methylpropyl)amino]methyl}[1]benzofuro[3,2-d]pyrimidin-4(3H)-one]"
< 10 µM,< 10 µM,< 10 µM,–,"O=c1[nH]c(CNCc2ccccc2Cl)nc2c1oc1ccc(Br)cc12 [Compound 235, 8-bromo-2-({[(2-chlorophenyl)methyl]amino}methyl)[1]benzofuro[3,2-d]pyrimidin-4(3H)-one]"
< 10 µM,< 10 µM,< 10 µM,< 0.1 µM,"O=c1[nH]c(CN2CCC(O)CC2)nc2c1oc1ccc(Br)cc12 [Compound 242, 8-bromo-2-[(4-hydroxypiperidin-1-yl)methyl][1]benzofuro[3,2-d]pyrimidin-4(3H)-one]"
< 10 µM,< 10 µM,< 10 µM,–,"O=C(CCN1CCOCC1)Nc1ccc(-c2nc3c(oc4ccc(Br)cc43)c(=O)[nH]2)c(Cl)c1 [Compound 248, N-[4-(8-bromo-4-oxo-3,4-dihydro[1]benzofuro[3,2-d]pyrimidin-2-yl)-3-chlorophenyl]-3-morpholin-4-ylpropanamide]"
< 10 µM,< 10 µM,< 10 µM,< 0.1 µM,"O=c1[nH]c(CNC2CCC2)nc2c1oc1ccc(Br)cc12 [Compound 252, 8-bromo-2-[(cyclobutylamino)methyl][1]benzofuro[3,2-d]pyrimidin-4(3H)-one]"
< 10 µM,< 10 µM,< 10 µM,< 0.1 µM,"O=c1[nH]c(CNCCc2c[nH]cn2)nc2c1oc1ccc(Br)cc12 [Compound 259, 8-bromo-2-({[2-(1H-imidazol-4-yl)ethyl]amino}methyl)[1]benzofuro[3,2-d]pyrimidin-4(3H)-one]"
< 10 µM,< 10 µM,< 10 µM,< 0.1 µM,"O=c1[nH]c(CNCC(O)CO)nc2c1oc1ccc(Br)cc12 (centres unmarked) [Compound 262, 8-bromo-2-{[(2,3-dihydroxypropyl)amino]methyl}[1]benzofuro[3,2-d]pyrimidin-4(3H)-one]"
< 10 µM,< 10 µM,< 10 µM,–,"O=C(NCc1cccc(Cl)c1)C1CCN(Cc2nc3c(oc4ccc(Br)cc43)c(=O)[nH]2)C1 (centres unmarked) [Compound 264, 1-[(8-bromo-4-oxo-3,4-dihydro[1]benzofuro[3,2-d]pyrimidin-2-yl)methyl]-N-[(3-chlorophenyl)methyl]pyrrolidine-3-carboxamide]"
< 10 µM,< 10 µM,< 10 µM,–,"CNc1cc(-c2nc3c(oc4ccc(Br)cc43)c(=O)[nH]2)c(Cl)cn1 [Compound 265, 8-bromo-2-[5-chloro-2-(methylamino)pyridin-4-yl][1]benzofuro[3,2-d]pyrimidin-4(3H)-one]"
< 10 µM,< 10 µM,< 10 µM,< 0.1 µM,"CCOC(=O)C1CCN(Cc2nc3c(oc4ccc(Br)cc43)c(=O)[nH]2)C1 (centres unmarked) [Compound 269, Ethyl 1-[(8-bromo-4-oxo-3,4-dihydro[1]benzofuro[3,2-d]pyrimidin-2-yl)methyl]pyrrolidine-3-carboxylate]"
< 10 µM,< 10 µM,< 10 µM,< 0.1 µM,"NC(=O)C1CCN(Cc2nc3c(oc4ccc(Br)cc43)c(=O)[nH]2)C1 (centres unmarked) [Compound 270, 1-[(8-bromo-4-oxo-3,4-dihydro[1]benzofuro[3,2-d]pyrimidin-2-yl)methyl]pyrrolidine-3-carboxamide]"
< 10 µM,< 10 µM,< 10 µM,< 0.1 µM,"CN1CCCC1c1nc2c(oc3ccc(Br)cc32)c(=O)[nH]1 (centres unmarked) [Compound 273, 8-Bromo-2-(1-methylpyrrolidin-2-yl)[1]benzofuro[3,2-d]pyrimidin-4(3H)-one]"
< 10 µM,< 10 µM,< 10 µM,–,"O=C(Nc1ccc(-c2nc3c(oc4ccc(Br)cc43)c(=O)[nH]2)c(Cl)c1)c1ccncc1Cl [Compound 275, N-[4-(8-bromo-4-oxo-3,4-dihydro[1]benzofuro[3,2-d]pyrimidin-2-yl)-3-chlorophenyl]-3-chloropyridine-4-carboxamide]"
< 10 µM,< 10 µM,< 10 µM,–,"O=C(Nc1ccc(-c2nc3c(oc4ccc(Br)cc43)c(=O)[nH]2)c(Cl)c1)c1ccnc(Cl)c1 [Compound 276, N-[4-(8-bromo-4-oxo-3,4-dihydro[1]benzofuro[3,2-d]pyrimidin-2-yl)-3-chlorophenyl]-2-chloropyridine-4-carboxamide]"
< 10 µM,< 10 µM,< 10 µM,< 0.1 µM,"COCCNCc1nc2c(oc3ccc(Br)cc32)c(=O)[nH]1 [Compound 277, 8-bromo-2-({[2-(methyloxy)ethyl]amino}methyl)[1]benzofuro[3,2-d]pyrimidin-4(3H)-one]"
< 10 µM,< 10 µM,< 10 µM,–,"CN(C)CCNc1cc(-c2nc3c(oc4ccc(Br)cc43)c(=O)[nH]2)c(Cl)cn1 [Compound 283, 8-bromo-2-(5-chloro-2-{[2-(dimethylamino)ethyl]amino}pyridin-4-yl)[1]benzofuro[3,2-d]pyrimidin-4(3H)-one]"
< 10 µM,< 10 µM,< 10 µM,< 0.1 µM,"O=c1[nH]c(CN2CCC(CO)C2)nc2c1oc1ccc(Br)cc12 (centres unmarked) [Compound 287, 8-bromo-2-{[3-(hydroxymethyl)pyrrolidin-1-yl]methyl}[1]benzofuro[3,2-d]pyrimidin-4(3H)-one]"
< 10 µM,< 10 µM,< 10 µM,< 0.1 µM,"CN1CCC(c2nc3c(oc4ccc(Br)cc43)c(=O)[nH]2)C1 (centres unmarked) [Compound 289, 8-bromo-2-(1-methylpyrrolidin-3-yl)[1]benzofuro[3,2-d]pyrimidin-4(3H)-one]"
< 10 µM,< 10 µM,< 10 µM,–,"O=c1[nH]c(C2CCN(Cc3ccncc3)C2)nc2c1oc1ccc(Br)cc12 (centres unmarked) [Compound 290, 8-bromo-2-[1-(pyridin-4-ylmethyl)pyrrolidin-3-yl][1]benzofuro[3,2-d]pyrimidin-4(3H)-one]"
< 10 µM,< 10 µM,< 10 µM,–,"Cc1ccc(C(=O)Nc2ccc(-c3nc4c(oc5ccc(Br)cc54)c(=O)[nH]3)c(Cl)c2)cn1 [Compound 291, N-[4-(8-bromo-4-oxo-3,4-dihydro[1]benzofuro[3,2-d]pyrimidin-2-yl)-3-chlorophenyl]-6-methylpyridine-3-carboxamide]"
< 10 µM,< 10 µM,< 10 µM,–,"O=C(Nc1ccc(-c2nc3c(oc4ccc(Br)cc43)c(=O)[nH]2)c(Cl)c1)c1ccccn1 [Compound 293, N-[4-(8-bromo-4-oxo-3,4-dihydro[1]benzofuro[3,2-d]pyrimidin-2-yl)-3-chlorophenyl]pyridine-2-carboxamide]"
< 10 µM,< 10 µM,< 10 µM,–,"O=C(Nc1ccc(-c2nc3c(oc4ccc(Br)cc43)c(=O)[nH]2)c(Cl)c1)c1cc(Cl)nc(Cl)c1 [Compound 294, N-[4-(8-bromo-4-oxo-3,4-dihydro[1]benzofuro[3,2-d]pyrimidin-2-yl)-3-chlorophenyl]-2,6-dichloropyridine-4-carboxamide]"
< 10 µM,< 10 µM,< 10 µM,–,"NCc1cccc(-c2nc3c(oc4ccc(Br)cc43)c(=O)[nH]2)c1 [Compound 302, 2-[3-(Aminomethyl)phenyl]-8-bromo[1]benzofuro[3,2-d]pyrimidin-4(3H)-one]"
< 10 µM,< 10 µM,< 10 µM,–,"O=c1[nH]c(C[C@@H]2CCCNC2)nc2c1oc1ccc(Br)cc12 [Compound 305, 8-bromo-2-[(3S)-piperidin-3-ylmethyl][1]benzofuro[3,2-d]pyrimidin-4(3H)-one]"
< 10 µM,< 10 µM,< 10 µM,< 0.1 µM,"O=c1[nH]c(CN2CC[C@@H](F)C2)nc2c1oc1ccc(Br)cc12 [Compound 307, 8-bromo-2-{[(3R)-3-fluoropyrrolidin-1-yl]methyl}[1]benzofuro[3,2-d]pyrimidin-4(3H)-one]"
< 10 µM,< 10 µM,< 10 µM,< 0.1 µM,"O=c1[nH]c(CN2CC[C@H](F)C2)nc2c1oc1ccc(Br)cc12 [Compound 308, 8-bromo-2-{[(3S)-3-fluoropyrrolidin-1-yl]methyl}[1]benzofuro[3,2-d]pyrimidin-4(3H)-one]"
< 10 µM,< 10 µM,< 10 µM,–,"O=c1[nH]c(CN2CCC3(CCNCC3)CC2)nc2c1oc1ccc(Br)cc12 [Compound 311, 8-bromo-2-(3,9-diazaspiro[5.5]undec-3-ylmethyl)[1]benzofuro[3,2-d]pyrimidin-4(3H)-one]"
